Data set [1] deals with Caco-2 cells (clone C2BBe1). Description: CACO-2 permeability. As to conditions: for DM Caco2 A to B: apical to basolateral, donor pH 6.5, receiver pH 7.4; for DM Caco2 B to A: basolateral to apical. Further details: unit not given here. Type of data set: in vitro ADME. In a few lines: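 Caco-2 monolayers grown 21 days on collagen-coated transwells and checked for integrity by TEER. Donor buffer was HBSS/HEPES/glucose pH 6.5 with 200 μM BNPP; receiver was pH 7.4 with BSA. Compounds were dosed apically or basolaterally for A-to-B and B-to-A transport, with receiver sampling at 1 and 2 h, LC-MS/MS analysis and percent recovery.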

The nature of the next data set: Plasma stability. Type of data set: in vitro ADME. Details: unit not given here. As to conditions: 37° C., 2 μM substrate. The gist of the method:
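Reaction mixture was sampled at 0.05, 0.5, 1, 2, 3 and 4 hr into quench solution containing internal standard, then centrifuged and diluted with water. Remaining analyte was measured by LC-MS on a Q-Exactive using a formic acid/acetonitrile gradient, with 5 ppm mass tolerance.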

The nature of data set [2]: Stability in pH2 buffered solution. Type of data set: physicochemical. The following applies: pH2 phosphate buffer, 40° C., 24 h; Table N2. The gist of the method: (§1)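 Compounds diluted from 1 mg/mL acetonitrile stock to 50 μg/mL in 50 mM phosphate buffer with 150 mM NaCl at pH2 or pH7, held at 40° C. for 24 hrs. UPLC sampling at 0, 3, 6, 9, 12 hrs, plus 24 hrs from oven-stored duplicate; reported as % area normalized of compound peak.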

A short description of data set [3]: Stability in pH7 buffered solution. Type of data set: physicochemical. The following applies: pH7 phosphate buffer, 40° C., Table N2. The gist of the method: as §1
Data set [4] deals with Respiratory syncytial virus recombinant with luciferase (RSV-Luc5) in HEp-2 cells. Description: microbe, parasite or virus in culture. Type of data set: cell-based. As to conditions: human respiratory syncytial virus.
Data set [5] can be described thus: CC50 MT4 cytotoxicity (Cell-Titer Glo). Type of data set: cell-based. The following applies: human. In a few lines:
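Uninfected MT-4 and HEp-2 cells cultured 4-5 days at 37° C with 3-fold serially diluted compound (15 nM to 100,000 nM). Viability read by Cell-Titer Glo luminescence; untreated and 2 μM puromycin wells set 100% and 0%. CC50 from non-linear regression as concentration reducing viability by 50%.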

Data set [6] is described as follows: Thermodynamic solubility in pH7 buffered solution. The following applies: 50 mM phosphate buffer pH7, 150 mM NaCl, ambient temperature, 24 hours. The protocol: Solubility was determined at ambient temperature in a 50 mM phosphate buffered pH7 solution with 150 mM NaCl (to achieve isotonicity). Solids were added to the buffered solution in 1.5-mL Eppendorf tubes, vortexed for 1 minute, then agitated for 24 hours in an Eppendorf ThermoMixer C. […] Supernatants were diluted to a volume of 1 mL with 30:70 v/v acetonitrile:water. All diluted supernatants were analyzed by UPLC using a Waters Acquity UPLC with a PDA UV detector.

For data set [7], the system named is Respiratory syncytial virus recombinant with luciferase (RSV-Luc5) in Normal Human Bronchial Epithelial (NHBE) cells. Description: microbe, parasite or virus in culture. Type of data set: cell-based.
Data set [8] relates to SARS Coronavirus 2 recombinant with NanoLuc (SARS-CoV2-NLuc) in A549-hACE2 cells. Description: organism not typed. Type of data set: cell-based.
The nature of another data set: GI S9 stability. Type of data set: in vitro ADME. As to conditions: human, s9, pH 7.4. Here is the method:
Example G: GI S9 Stability
Duplicate aliquots of test compound or positive control substrate (GS-7340) were added to S9 stock diluted with 100 mM phosphate buffered saline, pH 7.4, to obtain a protein concentration of 1.0 mg/mL. The S9 metabolic reactions were initiated by the addition of the substrates to the S9 reaction mixture to a final concentration of 2 μM. At 0, 10, 20, 30, 60 and 120 min, […] aliquots of the reaction mixture were transferred to plates containing […] of IS/Q solution. After quenching, the plates were centrifuged at 3000 g for 30 minutes, and 150 μL aliquots of each supernatant were diluted with 150 μL water. Aliquots ([…]) of the diluted supernatant were analyzed on a Thermo Q-Exactive mass spectrometer as described below. GI S9 Stability—No phenylmethylsulfonyl fluoride (PMSF): Similar to the procedure described above, test compounds were incubated at 2 μM with 1 mg/mL PMSF-free Intestinal S9 fractions. Samples are removed at 6 time points over the course of a 120 min experiment and the parent compound disappreance and reference compound A formation is determined by mass spectrometry.
Example K: Liquid Chromatography/Mass Spectroscopy Methods for S9 and Plasma Stability
Quantification of test compounds, Reference Compound A (S9 stability assay nucleoside metabolite), and controls was performed by analyte/internal standard peak area ratio (PAR) values measured on a Thermo Q-Exactive mass spectrometer coupled to a Dionex UltiMate 3000 HPLC with a Leap Technologies HTC PAL autosampler. The column used for analysis of test compounds and Reference Compound A was a Waters Acquity BEH C18 ([…] particle size, 2.1′50 mm). The column used for control (GS-7340) was a Thermo Hypersil GOLD ([…] particle size, 2.1′50 mm). Mobile phase A consisted of 0.1% (v/v) formic acid in water. Mobile phase B consisted of 0.1% (v/v) formic acid in acetonitrile. Elution of analytes was achieved by a series of linear gradients of acetonitrile in water containing 0.1°(v/v) formic acid. The mass spectrometer was calibrated on a weekly basis and mass tolerance of 5 ppm was used.

A short description of data set [9]: GI S9 stability - no PMSF. As to conditions: pH 7.4; human intestinal S9, PMSF-free; read-out: GIS9-HUMAN-NoPMSF T1/2. Type of data set: in vitro ADME. In a few lines: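 Compounds were incubated at 2 μM with PMSF-free intestinal S9 (1 mg/mL protein) in 100 mM PBS, pH 7.4, sampling at 6 time points over 120 min. Parent disappearance and formation of the nucleoside metabolite Reference Compound A were quantified by LC-MS (Q-Exactive) using analyte/internal standard peak area ratios.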

[10] abbreviates: HEp-2, 72 h, read-out: RSV Hep2 EC50.
Where [11] appears, read: read-out: EC50 RSVFluc-NHBE 384 V2.
Where [12] appears, read: A549; read-out: EC50 SARS CoV2 NanoLuc A549 384.

Each structure is given as a SMILES string. Read-outs that look alike come from different tables or passages of the source.

Regarding `N#C[C@@]1(c2ccc3c(N)ncnn23)O[C@H](COC(=O)OCc2ccccc2)[C@@H](O)[C@H]1O` [Compound 13, ((2R,3S,4R,5R)-5-(4-aminopyrrolo[2,1-f][1,2,4]triazin-7-yl)-5-cyano-3,4-dihydroxytetrahydrofuran-2-yl)methyl benzyl carbonate], the “DM Caco2 A to B” value in data set [1] turned out to be 0.59. Besides, the “DM Caco2 B to A” value in data set [1] is 8.8. In addition, the “STA Human Plasma 37” value in “Plasma stability” is reported as 3. Further, the “pH 2 Stability 24 h % AN” value in data set [2] stood at 98 % AN. Moreover, the “pH 7 Stability 24 h % AN” value in data set [3] came to 97 % AN. The EC50 is 444 nM in data set [4] (setting [10]); 1530 nM in [7] (72 h, read-out: RSV NHBE EC50); 1250 nM in data set [8] (48 h; read-out: SARS-CoV2 EC50). In data set [5], this compound displayed a CC50 of 39100 nM. Further, the “Sol pH 7” value in data set [6] stood at 0.12. In “GI S9 stability”, this compound displayed a half-life at 2 µM of 35.3 min.

Regarding `CC(C)COC(=O)OC[C@H]1O[C@@](C#N)(c2ccc3c(N)ncnn23)[C@H](O)[C@@H]1O` [Compound 1, ((2R,3S,4R,5R)-S-(4-aminopyrrolo[2,1-f][1,2,4]triazin-7-yl)-5-cyano-3,4-dihydroxytetrahydrofuran-2-yl)methyl isobutyl carbonate], the “DM Caco2 A to B” value in data set [1] worked out at 0.275. In addition, the “DM Caco2 B to A” value in [1] is on record as 3.853. For the same compound, in “Plasma stability”, the “STA Human Plasma 37” value amounted to 28.434. Moreover, the EC50 was determined as 422 nM in [4] (setting [10]); 2180 nM in data set [7] (72 h, read-out: RSV NHBE EC50); 1870 nM in [8] (48 h; read-out: SARS-CoV2 EC50). In [5], this compound registered a CC50 greater than 46400 nM. For the same compound, the half-life at 2 µM in data set [9] was 1.45 min; in the data set “GI S9 stability”, 113 min.

Regarding `COc1ccc(OC(=O)OC[C@H]2O[C@@](C#N)(c3ccc4c(N)ncnn34)[C@H](O)[C@@H]2O)cc1` [Compound 111, ((2R,3S,4R,5R)-5-(4-aminopyrrolo[2,1-f][1,2,4]triazin-7-yl)-5-cyano-3,4-dihydroxytetrahydrofuran-2-yl)methyl (4-methoxyphenyl) carbonate], the “DM Caco2 A to B” value in [1] is 0.625. Also, the “DM Caco2 B to A” value in [1] turned out to be 11.22. Also, the “STA Human Plasma 37” value in “Plasma stability” is reported as 35. The EC50 in [4] (HEp-2, read-out: EC50 RSVFluc-Hep2 384 V2) worked out at 220 nM; in data set [7] (setting [11]), 1300 nM; in [8] (setting [12]), 3420 nM. This compound also yielded a CC50 in data set [5] greater than 50000 nM. Also, the values for the half-life at 2 µM (in data set [9]; in the data set “GI S9 stability”) were 3.93 min and 53.1 min, respectively. In the data set “physchem”, this compound displayed a logD of 1.5.

As for `CCC(CC)COC(=O)OC[C@H]1O[C@@](C#N)(c2ccc3c(N)ncnn23)[C@H](O)[C@@H]1O` [Compound 15, ((2R,3S,4R,5R)-5-(4-aminopyrrolo[2,1-f][1,2,4]triazin-7-yl)-5-cyano-3,4-dihydroxytetrahydrofuran-2-yl)methyl (2-ethylbutyl) carbonate], the “DM Caco2 A to B” value in data set [1] stood at 1.46. In [1], the “DM Caco2 B to A” value was determined as 12. In addition, the “STA Human Plasma 37” value in “Plasma stability” amounted to 40.503. Besides, in data set [2], the “pH 2 Stability 24 h % AN” value is 98 % AN. In addition, the “pH 7 Stability 24 h % AN” value in data set [3] was 97 % AN. In addition, the EC50 in [4] (setting [10]) worked out at 530 nM; in data set [7] (72 h, read-out: RSV NHBE EC50), 900 nM; in [8] (48 h; read-out: SARS-CoV2 EC50) it was 1240 nM. The same compound returned a CC50 in data set [5] greater than 50000 nM. For the same compound, in [6], the “Sol pH 7” value is 0.26. In “GI S9 stability”, this compound displayed a half-life at 2 µM of 33.1 min.

For the compound `CCOP(=O)(O)O[C@H]1[C@@H](O)[C@](C#N)(c2ccc3c(N)ncnn23)O[C@@H]1COC(=O)OC(C)C` [Compound 144, [(2R,3S,4R,5R)-5-(4-aminopyrrolo[2,1-f][1,2,4]triazin-7-yl)-5-cyano-3-[ethoxy(hydroxy)phosphoryl]oxy-4-hydroxy-tetrahydrofuran-2-yl]methyl isopropyl carbonate], the CC50 in [5] (uninfected MT-4 cells, Table D3, read-out: CC50 MT4 384) was greater than 50000 nM. Besides, the EC50 in data set [7] (setting [11]) is 3060 nM; in [8] (setting [12]), greater than 50000 nM. This compound had a logD in the data set “DM logD” of 0.4.

For `CC(C)OC(=O)Nc1ncnn2c([C@]3(C#N)O[C@H](COC(=O)OC(C)C)[C@@H](OC(=O)OC(C)C)[C@H]3O)ccc12` [Compound 62, isopropyl (7-((2R,3R,4S,5R)-2-cyano-3-hydroxy-4-((isopropoxycarbonyl)oxy)-5-(((isopropoxycarbonyl)oxy)methyl)tetrahydrofuran-2-yl)pyrrolo[2,1-f][1,2,4]triazin-4-yl)carbamate], the “DM Caco2 A to B” value in [1] was 4.19. The “DM Caco2 B to A” value in [1] is listed as 12.12. Moreover, in the data set “Plasma stability”, the “STA Human Plasma 37” value was 488.7. For the same compound, the “pH 2 Stability 24 h % AN” value in data set [2] amounted to 61 % AN. Further, the “pH 7 Stability 24 h % AN” value in data set [3] stood at 10 % AN. Also, the EC50 is greater than 50000 nM in [4] (setting [10]); no less than 5000 nM in data set [7] (72 h, read-out: RSV NHBE EC50); no less than 5000 nM in data set [8] (48 h; read-out: SARS-CoV2 EC50). Also, the CC50 in data set [5] is greater than 50000 nM. The “Sol pH 7” value in data set [6] was 0.1. Besides, in the data set “GI S9 stability”, the half-life at 2 µM amounted to 31.1 min.

For the compound `N#C[C@@]1(c2ccc3c(N)ncnn23)O[C@H](COC(=O)OC2CCCCCCC2)[C@@H](O)[C@H]1O` [Compound 14, ((2R,3S,4R,5R)-5-(4-aminopyrrolo[2,1-f][1,2,4]triazin-7-yl)-5-cyano-3,4-dihydroxytetrahydrofuran-2-yl)methyl cyclooctyl carbonate], the “DM Caco2 A to B” value in data set [1] was found to be 1.84. Moreover, the “DM Caco2 B to A” value in data set [1] was determined as 21.7. The “STA Human Plasma 37” value in “Plasma stability” turned out to be 262.42. Moreover, the “pH 2 Stability 24 h % AN” value in [2] turned out to be 97 % AN. For the same compound, the “pH 7 Stability 24 h % AN” value in data set [3] is listed as 97 % AN. Besides, the EC50 in data set [4] (setting [10]) stood at 350 nM; in data set [7] (72 h, read-out: RSV NHBE EC50), 380 nM; in [8] (48 h, read-out: SARS-CoV2 EC50), 1560 nM. The CC50 in [5] is greater than 50000 nM. In addition, the half-life at 2 µM worked out at 1.07 min in data set [9] and 56.3 min in “GI S9 stability”.

Source of the values: patent US12448383B2, “Compounds and methods for treatment of viral infections” (priority 2022, dated 2025).
